Source: patent EP0411184B1, “Ascorbic acid derivative” (NIPPON HYPOX LABORATORIES INCORPORATED, priority 1989, dated 1991)

assay: Antioxidant action using stable radicals: reduction activity of DPPH (M. S. Blois method); format: biochemical; settings: 0.1 mM DPPH solution in ethanol, absorbance at 517 nm after 20 minutes, difference from solvent control (0.5% or less DMF); read-out: 50% radical eliminating concentration
Description: Test example 1 (Antioxidant action examined by using stable radicals)
Reduction activity of α,α-diphenyl-β-picrylhydrazyl (DPPH) which was a stable free radical was examined according to the M. S. Blois method (Nature, vol. 181, page 1199, 1958) and used as an index to antioxidant action. Thus, specimens were added to 3 mℓ of a 0.1 mM DPPH solution in ethanol, and absorbance at a wavelength of 517 nm was measured using a spectrophotometer after 20 minutes. The difference in absorbance from the solvent control [0.5% or less of dimethylformamide (DMF)] was taken as the reduction activity.

`CCCCOC(=O)COC1=C(O)C(=O)O[C@@H]1[C@@H](O)CO` [compound 109] and `CCOC(=O)COC1=C(O)C(=O)O[C@@H]1[C@@H](O)CO` [compound 111] are within 1.5-fold of each other in IC50: 18 µM for the first, 22 µM for the second.

`CCOC(=O)CCCOC1=C(O)C(=O)O[C@@H]1[C@@H](O)CO` [compound 106] and `CCOC(=O)CCCCOC1=C(O)C(=O)O[C@@H]1[C@@H](O)CO` [compound 105] are within 1.5-fold of each other in IC50: 21 µM for the first, 20 µM for the second.

`CCCCCCCCOC1=C(O)C(=O)O[C@@H]1[C@@H](O)CO` [compound 103] and `CCCCCCCCCCCCOC1=C(O)C(=O)O[C@@H]1[C@@H](O)CO` [compound 102] are within 1.5-fold of each other in IC50: 19 µM for the first, 18 µM for the second.

`CCCCCCCCCCCCCCCCCCOC1=C(O)C(=O)O[C@@H]1[C@@H](O)CO` [compound 101, reference compound] and `O=C(O)CCCCCCCCCCOC1=C(O)C(=O)O[C@@H]1[C@@H](O)CO` [compound 114] are within 1.5-fold of each other in IC50: 32 µM for the first, 24 µM for the second.

`O=C1O[C@H]([C@@H](O)CO)C(OCC(=O)c2ccccc2)=C1O` [compound 112, L-3-O-benzoylmethylascorbic acid] and `CC(=O)COC1=C(O)C(=O)O[C@@H]1[C@@H](O)CO` [compound 115] are within 1.5-fold of each other in IC50: 23 µM for the first, 22 µM for the second.

`O=C(O)CCCOC1=C(O)C(=O)O[C@@H]1[C@@H](O)CO` [compound 107] and `CCCCOC1=C(O)C(=O)O[C@@H]1[C@@H](O)CO` [compound 104] are within 1.5-fold of each other in IC50: 27 µM for the first, 23 µM for the second.

`CCOC(=O)C(C)OC1=C(O)C(=O)O[C@@H]1[C@@H](O)CO` (stereo partly drawn) [compound 108] and `CCCCCCCCCCOC(=O)COC1=C(O)C(=O)O[C@@H]1[C@@H](O)CO` [compound 110] are within 1.5-fold of each other in IC50: 19 µM for the first, 23 µM for the second.

For `O=C1O[C@H]([C@@H](O)CO)C(OCc2cccnc2)=C1O` [compound 113, L-3-O-(3-picoyl)ascorbic acid], the IC50 was 23 µM.
